Measurements from US20040038428A1, “Protein microarrays” (priority 2000, published 2004).
No end group written: not given here.

What was measured:
FKBP12 = FKBP12 (Homo sapiens, UniProt P62942); conditions: read-out: dissociation constants for FKBP12; cited from earlier work
p42 MAP kinase (Erk2) = molecular target: T1, p42 MAP kinase (Erk2) (Mus musculus, UniProt P63085); test: kinase substrate screen on BSA-NHS slides with 33P-γ-ATP, Erk2; assay type: biochemical; conditions: slide incubated with Erk2
T1 construct: purchased New England Biolabs (Beverly, Mass.)
T1 sequence (P63085 2-358 limits assumed): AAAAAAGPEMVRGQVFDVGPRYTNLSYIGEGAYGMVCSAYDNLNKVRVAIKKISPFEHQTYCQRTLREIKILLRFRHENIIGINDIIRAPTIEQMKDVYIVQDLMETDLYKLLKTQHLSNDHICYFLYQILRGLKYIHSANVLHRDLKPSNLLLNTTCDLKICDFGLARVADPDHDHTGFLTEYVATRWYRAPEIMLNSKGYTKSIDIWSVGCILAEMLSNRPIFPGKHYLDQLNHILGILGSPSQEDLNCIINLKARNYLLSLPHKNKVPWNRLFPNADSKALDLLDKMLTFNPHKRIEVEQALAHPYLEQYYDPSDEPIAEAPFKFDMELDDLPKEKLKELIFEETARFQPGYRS
Experimental: (§1) To give but one example, most signal transduction networks are composed of numerous kinases and the proteins that they phosphorylate. Protein microarrays offer an ideal system for the rapid and parallel identification of the substrates of protein kinases. A microarray of proteins can be incubated with a purified kinase in the presence of ATP, and the substrates identified by detecting their phosphorylation. In but one exemplary system, three different kinase/substrate pairs were chosen: cAMP-dependent protein kinase (PKA) and “Kemptide” (a peptide substrate for PKA) (Kemp et al. J. Biol. Chem. 252:4888-4894, 1977; incorporated herein by reference); casein kinase II (CKII) and protein phosphatase inhibitor 2 (I-2) (DePaoli-Roach J. Biol. Chem. 259:12144-12152, 1984; incorporated herein by reference); and p42 MAP kinase (Erk2) and Elk1 (Marais et al. Cell 73:381-393, 1993; incorporated herein by reference). […] Following a three-hour incubation, each slide was quenched with glycine and incubated with a different kinase in the presence of ^33P-γ-ATP (FIG. 3). […]
(§2) The slide in FIG. 3A was incubated with PKA. […] Since isotopic […] is known to be quantitative, the best substrates in a library of peptides can be readily identified. […]
(§3) For FIG. 3, the proteins were spotted on BSA-NHS slides using a GMS 417 Arrayer. […] The slides were then ready for further processing (see below). […]

[1] = tested on: 5-helix (portion of the HIV protein gp41); conditions: rank among the three peptides; cited from earlier work
[2] = molecular target: T2, cAMP-dependent protein kinase (PKA) (Mus musculus, UniProt P05132); test: kinase substrate screen on BSA-NHS slides with 33P-γ-ATP, PKA; assay type: biochemical; conditions: slide incubated with PKA
T2 construct: purchased New England Biolabs (Beverly, Mass.)
Experimental: as §1, §2, §3

casein kinase II (CKII) = molecular target: T3, casein kinase II (CKII) (Homo sapiens, UniProt P68400); test: kinase substrate screen on BSA-NHS slides with 33P-γ-ATP, CKII; assay type: biochemical; conditions: slide incubated with CKII
T3 construct: purchased New England Biolabs (Beverly, Mass.)
T3 sequence (P68400 whole entry): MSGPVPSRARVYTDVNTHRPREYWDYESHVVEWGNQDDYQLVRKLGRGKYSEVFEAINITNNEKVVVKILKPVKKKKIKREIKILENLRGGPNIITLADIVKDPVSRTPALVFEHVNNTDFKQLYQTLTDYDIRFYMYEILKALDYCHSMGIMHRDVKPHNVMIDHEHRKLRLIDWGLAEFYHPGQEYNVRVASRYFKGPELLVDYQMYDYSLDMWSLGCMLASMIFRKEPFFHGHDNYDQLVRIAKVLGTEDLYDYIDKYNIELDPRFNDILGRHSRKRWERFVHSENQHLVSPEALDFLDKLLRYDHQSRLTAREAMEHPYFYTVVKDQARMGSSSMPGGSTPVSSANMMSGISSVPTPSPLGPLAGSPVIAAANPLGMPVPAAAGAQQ
T3 sequence (P67870 whole entry partner): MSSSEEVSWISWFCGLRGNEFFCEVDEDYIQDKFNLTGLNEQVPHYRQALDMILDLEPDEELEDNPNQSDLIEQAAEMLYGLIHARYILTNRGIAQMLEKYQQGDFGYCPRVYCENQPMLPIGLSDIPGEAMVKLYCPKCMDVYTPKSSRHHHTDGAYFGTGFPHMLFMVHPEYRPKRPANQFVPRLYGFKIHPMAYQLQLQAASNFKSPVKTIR
Experimental: as §1, §2, §3

[3] = molecular target: T4, p50 (of the NFκB complex) (Homo sapiens, UniProt P19838); test: protein microarray: protein-protein interaction, p50 spots; assay type: binding; conditions: probe 0.1 μg/ml
T4 construct: p50 (of the NFκB complex) and IκBα
T4 sequence (P19838 1-433 limits assumed): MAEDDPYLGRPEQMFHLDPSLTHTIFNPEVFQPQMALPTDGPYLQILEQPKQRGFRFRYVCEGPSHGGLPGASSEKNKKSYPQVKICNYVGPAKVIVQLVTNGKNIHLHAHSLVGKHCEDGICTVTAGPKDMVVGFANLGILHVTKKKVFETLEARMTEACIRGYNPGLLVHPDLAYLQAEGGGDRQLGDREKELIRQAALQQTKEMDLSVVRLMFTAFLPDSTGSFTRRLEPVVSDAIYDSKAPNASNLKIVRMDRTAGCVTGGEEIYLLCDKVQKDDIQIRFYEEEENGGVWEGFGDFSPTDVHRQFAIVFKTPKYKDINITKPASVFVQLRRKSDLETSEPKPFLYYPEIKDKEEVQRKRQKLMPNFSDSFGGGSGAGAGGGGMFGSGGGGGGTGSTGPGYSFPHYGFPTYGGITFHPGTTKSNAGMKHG
Excerpt: Arraying Proteins on Glass Slides.
Screening for Protein-Protein Interactions.

Chain of FKBP12 (P62942 whole entry): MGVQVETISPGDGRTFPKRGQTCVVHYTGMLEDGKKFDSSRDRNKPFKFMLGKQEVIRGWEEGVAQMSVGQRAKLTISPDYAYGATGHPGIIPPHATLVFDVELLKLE

In the case of `COc1ccc(CC[C@@H](OC(=O)[C@@H]2CCCCN2C(=O)Cc2ccccc2)c2cccc(OCC(=O)O)c2)cc1OC` [Compound 3c], the Kd (FKBP12) is given as 2.6 µM.

With “Elk1: protein substrate of p42 MAP kinase (Erk2)” the “phosphorylation of spotted substrate” value (p42 MAP kinase (Erk2)) was “phosphorylated”.

For “GGHTTWMEADREINNYTSLIHSLIEESQNQQEKNEQELL [JN-DCC2, peptide ligand for 5-helix]”, the “relative affinity for 5-helix” value [1] is given as “lowest affinity”.

In the case of “GGHTTWMELDREINNYTSLIHSLIEESQNQQEKNEQELL [JN-DCC1, peptide ligand for 5-helix]”, the “relative affinity for 5-helix” value [1] is listed as “second highest affinity”.

In the case of “GGHTTWMEWDREINNYTSLIHSLIEESQNQQEKNEQELLGGHHHHHH [Compound C37-H6, peptide ligand for 5-helix]”, the “relative affinity for 5-helix” value [1] is listed as “highest affinity”.

With LRRASLG [Kemptide] the “phosphorylation of spotted substrate” value [2] was “phosphorylated”.

B1: I-2: protein phosphatase inhibitor 2, substrate of casein kinase II (protein, UniProt P41236 2-205, looked up)
Protein phosphatase inhibitor …: AASTASHRPIKGILKNKTSTTSSMVASAEQPRGNVDEELSKKSQKWDEMNILATYHPADKDYGLMKIDEPSTPYHSMMGDDEDACSDTEATEAMAPDILARKLAAAEGLEPKYRIQEQESSGEEDSDLSPEEREKKRQFEMKRKLHYNEGLNIKLARQLISKDLHDDDEDEEMLETADGESMNTEESNQGSTPSDQQQNKLRSS
In the case of B1, the “phosphorylation of spotted substrate” value (casein kinase II (CKII)) is reported as “phosphorylated”.

B2: Cy3-conjugated IκBα: IκBα labeled with Cy3 (protein, UniProt P25963 1-317, looked up)
NF-kappa-B inhibitor alpha: MFQAAERPQEWAMEGPRDGLKKERLLDDRHDSGLDSMKDEEYEQMVKELQEIRLEPQEVPRGSEPWKQQLTEDGDSFLHLAIIHEEKALTMEVIRQVKGDLAFLNFQNNLQQTPLHLAVITNQPEIAEALLGAGCDPELRDFRGNTPLHLACEQGCLASVGVLTQSCTTPHLHSILKATNYNGHTCLHLASIHGYLGIVELLVSLGADVNAQEPCNGRTALHLAVDLQNPDLVSLLLKCGADVNRVTYQGYSPYQLTWGRPSTRIQQQLGQLTLENLQMLPESEDEESYDTESEFTEFTEDELPYDDCVFGGQRLTL
modifications: Cy3 label
In the case of B2, the “localization of Cy3 fluorescence on array of protein G, p50 and GST-FRB” value [3] is reported as “localized to the p50-containing spots”.
